{
  "source": "paper PMC7412250",
  "about": "“Novel Chrysin-De-Allyl PAC-1 Hybrid Analogues as Anticancer Compounds: Design, Synthesis, and Biological Evaluation” (Molecules, 2020)",
  "key": {"[1]": {"test_system": "HMEC (human mammary epithelial cells)", "experiment": "MTT cytotoxicity assay, normal cells HMEC", "format": "cell-based", "settings": "mean ± SEM of three independent experiments in triplicate", "method": "(§1) A panel of cancer cell lines, including breast (MDA-MB-231, BT20), brain (U251), and colon (HCT116), as well as a normal cell line (human mammary epithelial cells: HMECs), were grown as adherent monolayers in flasks with Dulbecco’s Modified Eagle Medium (DMEM), supplemented with 10% fetal bovine serum (FBS) and 1% penicillin and streptomycin in a humidified incubator with 5% CO2 at 37 °C.\n(§2) The (3-(4,5-dimethylthiazol-2-yl)-2,5-diphenyltetrazolium bromide) (MTT) assay was used to determine the cytotoxicity of the 15 chrysin derivatives in the above-mentioned cell lines. Briefly, cells were harvested with 0.05% trypsin, 2.21 mM ethylenediaminetetraacetic acid (EDTA), 1× from Corning (Corning, NY, USA), and suspended at a final density of 5 × 10^3 cells/well. Cells were seeded (180 μL/well) into 96-well plates. Initially, four different concentrations of each compound were added to find the compounds with the greatest antiproliferative efficacy in the MDA-MB-231 cell line (0, 1, 10, and 100 μM). Subsequently, […] different concentrations […] of each compound were added to the remaining cell lines mentioned above. After 68 h of incubation, 20 μL of the MTT solution (4 mg/mL) were added to each well, and the plates were incubated for 4 h. This allowed viable cells to biotransform the yellow-colored MTT into dark-blue formazan crystals. Subsequently, the medium was discarded, and 150 μL of DMSO were added to each well to dissolve the formazan crystals. The absorbance was determined at 590 nm using a DTX 880 multimode detector (Beckman Coulter life sciences, IN, USA). The IC50 ± SD concentrations were calculated from three experiments performed in triplicate/duplicate. The IC50 values were calculated from the cell survival percentages obtained for each compound tested at different concentrations. Similarly, the cytotoxicity of the test compounds was compared to the normal cell line (HMEC)."}, "MDA-MB-231 cells [2]": {"test_system": "MDA-MB-231 cells", "experiment": "MTT cytotoxicity assay, MDA-MB-231", "format": "cell-based, human", "settings": "Homo sapiens; MDA-MB-231, MTT, mean ± SD of two independent experiments in triplicate; read-out: IC50 (cell survival)", "method": "The synthesized chrysin derivatives were evaluated for cytotoxic efficacy in the human breast cancer cell line, MDA-MB-231, using the 3-(4,5-dimethylthiazol-2yl)-2,5-diphenyltetrazolium bromide (MTT) colorimetric assay and doxorubicin was used as a reference anticancer drug.\nas §1\nas §2, with “The IC50 ± SD concentrations were calculated from three experiments performed in triplicate/duplicate.” left out"}, "BT-20, U-251, and HCT116": {"test_system": "BT-20, U-251, and HCT116", "experiment": "MTT cytotoxicity assay, three cancer cell lines stated together", "format": "cell-based", "settings": "range across the three cancer cell lines, read-out: IC50 values, range over BT-20, U-251 and HCT116", "method": "as §1\nThe (3-(4,5-dimethylthiazol-2-yl)-2,5-diphenyltetrazolium bromide) (MTT) assay was used to determine the cytotoxicity of the 15 chrysin derivatives in the above-mentioned cell lines. Briefly, cells were harvested with 0.05% trypsin, 2.21 mM ethylenediaminetetraacetic acid (EDTA), 1× from Corning (Corning, NY, USA), and suspended at a final density of 5 × 10^3 cells/well. Cells were seeded (180 μL/well) into 96-well plates. Initially, four different concentrations of each compound were added to find the compounds with the greatest antiproliferative efficacy in the MDA-MB-231 cell line (0, 1, 10, and 100 μM). […] The absorbance was determined at 590 nm using a DTX 880 multimode detector (Beckman Coulter life sciences, IN, USA). The IC50 ± SD concentrations were calculated from three experiments performed in triplicate/duplicate. The IC50 values were calculated from the cell survival percentages obtained for each compound tested at different concentrations. […]"}, "MDA-MB-231 cells [3]": {"test_system": "MDA-MB-231 cells", "experiment": "Cell cycle analysis by PI flow cytometry", "format": "cell-based, human", "settings": "24 h, vehicle 4.46%", "method": "MDA-MB-231 cells were plated into 6-well plates at 2.5 × 10^5 cells/well. […] Next, the cells were trypsinized with 0.05% trypsin, 2.21 mM EDTA, 1×, washed, counted, and resuspended in 1 mL of ice-cold PBS. The cells then were stained with propidium iodide (PI) dye and incubated for at least 15 min. The distribution of the cells in each cell cycle phase for the different concentrations was measured using a BD Accuri™ C6 flow cytometer from BD Biosciences (Becton-Dickinson, San Jose, CA, USA) and analyzed using FCS Express 5 plus De Novo software (Glendale, CA, USA)."}},
  "data": [
    {"smiles": "O=C(COc1cc(O)c2c(=O)cc(-c3ccccc3)oc2c1)N/N=C/c1ccc(O)c(O)c1O", "note": "[Compound 4i, (E,Z)-2-((5-Hydroxy-4-oxo-2-phenyl-4H-chromen-7-yl)oxy)-N’-(2,3,4-trihydroxybenzylidene)acetohydrazide]", "values": [
      {"measurement": "IC50", "setting": "[1]", "result": "> 100", "unit": "µM"},
      {"measurement": "IC50", "setting": "MDA-MB-231 cells [2]", "result": "9.4 ± 1.45", "unit": "µM"},
      {"measurement": "IC50", "setting": "BT-20, U-251, and HCT116", "result": "10 to 25", "unit": "µM"}
    ]},
    {"smiles": "O=C(COc1cc(O)c2c(=O)cc(-c3ccccc3)oc2c1)N/N=C/c1ccc(O)cc1O", "note": "[Compound 4g, (E,Z)-N’-(2,4-Dihydroxybenzylidene)-2-((5-hydroxy-4-oxo-2-phenyl-4H-chromen-7-yl)oxy)acetohydrazide]", "values": [
      {"measurement": "IC50", "setting": "[1]", "result": "8 ± 1.33", "unit": "µM"},
      {"measurement": "IC50", "setting": "MDA-MB-231 cells [2]", "result": "5.98 ± 2.25", "unit": "µM"},
      {"measurement": "% of cells in G2 phase", "setting": "MDA-MB-231 cells [3]; 5 µM", "result": 59.12, "unit": "%"},
      {"measurement": "% of cells in G2 phase", "setting": "MDA-MB-231 cells [3]; 10 µM", "result": 54.13, "unit": "%"}
    ]}
  ]
}
